Source: US10918683B2, “Methods to reduce fat accumulation and oxidative damage in liver using green mango extracts and compounds obtained therefrom” (TCI CO., LTD., priority 2018, dated 2021)

Tested on: HepG2 cells
Experiment: Oil red O staining of fat accumulation in oleic acid-treated HepG2 cells
Type: cell-based, human
Conditions: 10 μg/mL compound (dissolved in DMSO)
Procedure: HepG2 cells were cultured at 37° C. under 5% carbon dioxide in DMEM supplemented with 10% FBS and 1% penicillin/streptomycin, hereinafter referred to as DMEM culture medium.
To prepare the oil red O staining solution, the dye, oil red O, was first dissolved in 100% isopropanol thoroughly to prepare a 30 mg/mL oil red O stock solution. To obtain a ready-to-use oil red O staining solution, the stock solution was diluted with double deionized water to a concentration of 18 mg/mL and filtered through a 0.22 μm filter immediately before use.
To obtain a DMEM containing oleic acid-BSA conjugate, 10 mg/mL BSA and 28 μg/mL oleic acid were added to a DMEM with 2% FBS and 1% penicillin/streptomycin. The resulting mixture was stirred for about 30 minutes to facilitate the conjugation between oleic acid and BSA and the formation of conjugates.
The neutral fat content of cells was determined by oil red O staining. Prior to staining, the cells after indicated treatment were washed with PBS and then fixed with 10% formaldehyde for 30 minutes. The fixed cells were washed once with PBS and rinsed with 50% isopropanol for 15 seconds. Thereafter, the cells were stained with the oil red O staining solution for 1 hour. […] Alternatively, the intracellular dye was dissolved with 100% isopropanol and quantified by spectrophotometry. […]

## O=C(OCC1OC(OC(=O)c2cc(O)c(O)c(O)c2)C(OC(=O)c2cc(O)c(O)c(O)c2)C(OC(=O)c2cc(O)c(O)c(O)c2)C1OC(=O)c1cc(O)c(O)c(O)c1)c1ccc(O)cc1 (centres unmarked) [formula (Ia)]
  reduction of fat accumulation in HepG2 cells compared with oleic acid alone: approximately 33%

## O=C(OCC1OC(OC(=O)c2cc(O)c(O)c(O)c2)C(OC(=O)c2cc(O)c(O)c(O)c2)C(OC(=O)c2cc(O)c(O)c(O)c2)C1OC(=O)c1cc(O)c(O)c(O)c1)c1cc(O)c(O)c(O)c1 (centres unmarked) [formula (Ib), 1,2,3,4,6-penta-O-galloyl-glucopyranoside]
  reduction of fat accumulation in HepG2 cells compared with oleic acid alone: ~44%
